# Measured values published in patent US20220041559A1, “BENZO-AND PYRIDO-PYRAZOLES AS PROTEIN KINASE INHIBITORS” (ROTTAPHARM BIOTECH S.R.L., priority 2019, published 2022).
# How the values were obtained:
# EGFR = EGFR (Homo sapiens, UniProt P00533); assay: ADP-Glo in vitro kinase assay, EGFR kinase inhibition; assay type: biochemical; set-up: purchased SignalChem
# Description: The ADP-Glo™ Kinase Assay (Promega), monitoring ADP produced in the kinase reaction, was performed in two steps. In the first one, after the kinase reaction, the ADP-Glo™ Reagent is added to terminate the kinase reaction and deplete the remaining ATP. In the second step, the Kinase Detection Reagent is added to simultaneously convert ADP to ATP (ATPn or newly synthesized ATP) and introduce luciferase and luciferin, allowing the ATPn to be measured (luciferase/luciferin reaction). The amount of light generated correlates with the amount of ATPn (indirectly with the ADP produced in kinase reaction).
# Kinase reaction was performed in 10 μl in a white 384-well plate, inhibitor solutions in DMSO/Kinase buffer (40 mM Tris-Cl, 20 mM MgCl2, 0.1 mg/ml BSA, 50 μM DTT, pH 7.5) and EGFR kinase in Kinase buffer (SignalChem, 2.5 ng/μl final concentration in assay) were pre-incubate 15 minutes at room temperature. At the kinase concentration selected a signal-to negative control ratio >10 was calculated, according to supplier indication. In samples representing the Total enzymatic activity (no inhibitor) or the negative control (no enzyme), inhibitor solution was replaced by diluents (1 DMSO in kinase buffer, final concentration) or ultra-pure water, respectively.
# The range of inhibitor concentrations was from 10^−11 M up to 3×10^−6 M (final concentration in assay) and each experimental point was performed in duplicate.
# To start the reaction, a substrate/ATP mix (ATP 10 μM final concentration, near to ATP Km value) was added to each sample and after 30 minutes incubation at room temperature, ADP-Glo™ Reagent and Kinase Detection Reagent, incubated in sequence according to the respective incubation time and supplier indication, allowed to stop and develop the kinase reaction. The luminescence was measured with a plate-reading luminometer (Envision 2104 Multilabel reader, PerkinElmer). The percentage of inhibition was calculated towards the Total enzymatic activity and the corresponding curves were analyzed by non linear curve fitting (GraphPad software, version 7 for Windows), allowing to calculate the IC50 value±standard error of the estimate.
# U87MG-luc tumor cells = assay: Reduction of tumor growth in intracranial U87MG-luc glioblastoma bearing mice; assay type: in vivo, athymic Nude mice; settings: 50 mg/kg orally once a day, days 9-19
# Description: Human U87MG cells (Glioblastoma Cancer cell line) were engineered to express the luciferase gene (U87MG-luc). Cultured U87MG-luc tumor cells were intracranially injected in athymic Nude mice. Eight days from injection mice were randomised on the basis of luminescence values emitted by luciferase-expressing U87M-luc tumor cells and divided into 2 treatment groups. The treatment started on day 9 and lasted 10 days. Mice were orally dosed with vehicle or with compound 5 of invention (50 mg/kg, once a day). The tumor growth was evaluated by real-time Bioluminescence Imaging at the end of the treatments period (day 19) and on day 26 and 33, form the cell injection. The tumour growth was reduced in mice treated with compound 5 compared to mice treated with vehicle alone.
# U87MG xenograft = assay: Survival time of intracranial U87MG glioblastoma bearing mice; assay type: in vivo, athymic Nude mice; settings: 50 mg/kg orally once a day, day 9 until day 19
# Description: Human U87MG cancer cell line were implanted in athymic Nude mice by intracranial injection. Mice, divided into two groups, were orally dosed for 10 days either with vehicle or with Compound 5 (50 mg/kg, once a day) from the day 9 until day 19 after injection of tumour cells. The animal survival was tracked over time, mice were monitored for mortality and sacrificed at appearance of signs of distress, neurological deficits, seizure, or significant body weight loss (e.g. >20%).
# Sequence of EGFR (P00533 25-1210): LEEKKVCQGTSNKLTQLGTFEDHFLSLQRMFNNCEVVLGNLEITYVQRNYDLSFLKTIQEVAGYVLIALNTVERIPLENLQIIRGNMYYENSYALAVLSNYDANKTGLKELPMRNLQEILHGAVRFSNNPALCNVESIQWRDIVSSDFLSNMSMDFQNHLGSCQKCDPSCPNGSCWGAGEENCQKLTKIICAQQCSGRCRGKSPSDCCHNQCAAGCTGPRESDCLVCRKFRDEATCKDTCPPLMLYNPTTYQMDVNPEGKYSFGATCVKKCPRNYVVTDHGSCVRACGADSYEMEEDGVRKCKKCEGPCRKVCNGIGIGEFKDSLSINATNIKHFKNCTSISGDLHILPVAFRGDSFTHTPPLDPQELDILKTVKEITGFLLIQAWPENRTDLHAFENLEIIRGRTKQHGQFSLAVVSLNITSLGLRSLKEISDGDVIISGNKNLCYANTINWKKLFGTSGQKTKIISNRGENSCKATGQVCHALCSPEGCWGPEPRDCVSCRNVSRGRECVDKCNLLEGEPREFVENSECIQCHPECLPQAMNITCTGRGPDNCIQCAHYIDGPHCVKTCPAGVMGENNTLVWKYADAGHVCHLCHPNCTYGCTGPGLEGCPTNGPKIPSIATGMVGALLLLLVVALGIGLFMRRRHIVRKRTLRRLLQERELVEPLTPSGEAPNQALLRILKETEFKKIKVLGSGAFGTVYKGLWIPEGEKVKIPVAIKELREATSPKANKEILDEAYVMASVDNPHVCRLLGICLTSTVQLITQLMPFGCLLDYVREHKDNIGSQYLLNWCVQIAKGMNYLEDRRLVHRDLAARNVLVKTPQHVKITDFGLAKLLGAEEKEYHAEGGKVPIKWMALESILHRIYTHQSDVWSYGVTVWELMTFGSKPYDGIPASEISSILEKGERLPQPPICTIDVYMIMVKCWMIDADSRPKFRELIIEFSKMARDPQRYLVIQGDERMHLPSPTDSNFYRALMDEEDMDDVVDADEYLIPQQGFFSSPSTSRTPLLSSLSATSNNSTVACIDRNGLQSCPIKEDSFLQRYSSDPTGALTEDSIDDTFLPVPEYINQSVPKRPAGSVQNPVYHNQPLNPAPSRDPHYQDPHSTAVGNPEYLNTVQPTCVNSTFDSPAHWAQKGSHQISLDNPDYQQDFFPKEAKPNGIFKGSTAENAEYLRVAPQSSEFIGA
compound,measurement,setting,value
"CN1CCC(c2ccc(C(=O)Nc3n[nH]c4nc(Nc5ccccc5F)ccc34)cc2)CC1 [Compound 5, N-(6-((2-fluorophenyl)amino)-1H-pyrazolo[3,4-b]pyridin-3-yl)-4-(1-methylpiperidin-4-yl)benzamide]",IC50,"EGFR; ATP 10 μM, 30 minutes at room temperature",6 nM
same,"EGFR kinase inhibition, result in words",EGFR; text summary of Table 18,more active
same,inhibition of tumour growth (percentage of radiance inhibition),U87MG-luc tumor cells; day 19,24.9%
same,inhibition of tumour growth (percentage of radiance inhibition),U87MG-luc tumor cells; day 26,34.4%
same,inhibition of tumour growth (percentage of radiance inhibition),U87MG-luc tumor cells; day 33,60.4%
same,median survival time from tumour cell injection,U87MG xenograft,70 days
